{
  "source": "patent US11154529B2",
  "about": "“Phosphaplatin liquid formulations” (Phosplatin Therapeutics Inc., priority 2016, dated 2021)",
  "key": {"[1]": {"assay": "Precipitation of (R,R)-pyrodach-2 dimer from 5 mg/mL ready-to-use formulation on storage at 2-8° C.", "type": "physicochemical", "conditions": "5 mg/mL formulation per Example 6, initial dimer ~0.6 area %", "method": "• Transfer 4564.6 mg±0.5 mg of potassium phosphate dibasic, trihydrate to a 2-L volumetric flask. • Fill flask to approximately 75% volume with water, swirl as needed to dissolve all solids. • Volumetrically transfer 32.0 mL of 1N KOH to flask. • Dilute flask to volume with water and mix well. • Record pH of final solution. This is the diluent. • Transfer 7653.1 mg±0.5 mg of (R,R)-pyrodach-2 to a compounding vessel. • Transfer 1500 mL of the diluent to the vessel and stir to dissolve solids. • Record pH of final solution. • Pass entire solution through a 0.22 μm sterile filter membrane into a sterile collection vessel. • Calculate (R,R)-pyrodach-2 solution concentration"}, "[2]": {"assay": "Ready-to-use formulation stability at −20° C., 5 mg/mL (R,R)-pyrodach-2 in 10 mM Bicarbonate Buffer at pH 8.6, 10 mL vials", "type": "physicochemical"}},
  "data": [
    {"smiles": "O=P1(O)OP(=O)(O)[O][Pt]2([NH][C@@H]3CCCC[C@H]3[NH]2)[O]1", "note": "(stereo partly drawn) [(R,R)-pyrodach-2, (R,R)-trans-1,2-cyclohexanediamine-(dihydrogenpyrophosphato)platinum(II)]", "values": [
      {"measurement": "time by which crystallization observed in all sample vials", "setting": "[1]", "value": "≤ 12", "unit": "months"},
      {"measurement": "Potency (Assay)", "setting": "[2]; 1 month", "value": 97.5, "unit": "%"},
      {"measurement": "Purity (% Area)", "setting": "[2]; 1 month", "value": 97.08, "unit": "%"},
      {"measurement": "Unknown Impurities RRT~0.29", "setting": "[2]; 1 month", "value": 0.16, "unit": "%"},
      {"measurement": "Unknown Impurities RRT~0.41", "setting": "[2]; 1 month", "value": 0.07, "unit": "%"},
      {"measurement": "Unknown Impurities RRT~0.44", "setting": "[2]; 1 month", "value": 0.09, "unit": "%"},
      {"measurement": "Unknown Impurities RRT~0.49", "setting": "[2]; 1 month", "value": 0.94, "unit": "%"},
      {"measurement": "Unknown Impurities RRT~0.59", "setting": "[2]; 1 month", "value": 0.09, "unit": "%"},
      {"measurement": "Unknown Impurities RRT~0.62", "setting": "[2]; 1 month", "value": 0.12, "unit": "%"},
      {"measurement": "Unknown Impurities RRT~0.73", "setting": "[2]; 1 month", "value": 1.12, "unit": "%"},
      {"measurement": "Unknown Impurities RRT~1.69", "setting": "[2]; 1 month", "value": "ND (ND = Not Detected, or <0.05%)"},
      {"measurement": "Unknown Impurities RRT~2.96", "setting": "[2]; 1 month", "value": "ND (ND = Not Detected, or <0.05%)"},
      {"measurement": "Unknown Impurities RRT~3.02", "setting": "[2]; 1 month", "value": "ND (ND = Not Detected, or <0.05%)"},
      {"measurement": "Unknown Impurities RRT~3.12", "setting": "[2]; 1 month", "value": 0.05, "unit": "%"},
      {"measurement": "Unknown Impurities RRT~3.24", "setting": "[2]; 1 month", "value": "ND (ND = Not Detected, or <0.05%)"},
      {"measurement": "Unknown Impurities RRT~3.30", "setting": "[2]; 1 month", "value": 0.05, "unit": "%"},
      {"measurement": "Unknown Impurities RRT~3.33", "setting": "[2]; 1 month", "value": 0.06, "unit": "%"},
      {"measurement": "Unknown Impurities RRT~3.70", "setting": "[2]; 1 month", "value": "ND (ND = Not Detected, or <0.05%)"},
      {"measurement": "Unknown Impurities RRT~4.02", "setting": "[2]; 1 month", "value": 0.08, "unit": "%"},
      {"measurement": "pH", "setting": "[2]; 1 month", "value": 8.77},
      {"measurement": "Potency (Assay)", "setting": "[2]; 6 month", "value": 98.4, "unit": "%"},
      {"measurement": "Purity (% Area)", "setting": "[2]; 6 month", "value": 96.36, "unit": "%"},
      {"measurement": "Unknown Impurities RRT~0.29", "setting": "[2]; 6 month", "value": 0.23, "unit": "%"},
      {"measurement": "Unknown Impurities RRT~0.41", "setting": "[2]; 6 month", "value": 0.45, "unit": "%"},
      {"measurement": "Unknown Impurities RRT~0.44", "setting": "[2]; 6 month", "value": "ND (ND = Not Detected, or <0.05%)"},
      {"measurement": "Unknown Impurities RRT~0.49", "setting": "[2]; 6 month", "value": 1.41, "unit": "%"},
      {"measurement": "Unknown Impurities RRT~0.59", "setting": "[2]; 6 month", "value": 0.15, "unit": "%"},
      {"measurement": "Unknown Impurities RRT~0.62", "setting": "[2]; 6 month", "value": "ND (ND = Not Detected, or <0.05%)"},
      {"measurement": "Unknown Impurities RRT~0.73", "setting": "[2]; 6 month", "value": 0.84, "unit": "%"},
      {"measurement": "Unknown Impurities RRT~1.69", "setting": "[2]; 6 month", "value": 0.22, "unit": "%"},
      {"measurement": "Unknown Impurities RRT~2.96", "setting": "[2]; 6 month", "value": "ND (ND = Not Detected, or <0.05%)"},
      {"measurement": "Unknown Impurities RRT~3.02", "setting": "[2]; 6 month", "value": "ND (ND = Not Detected, or <0.05%)"},
      {"measurement": "Unknown Impurities RRT~3.12", "setting": "[2]; 6 month", "value": 0.08, "unit": "%"},
      {"measurement": "Unknown Impurities RRT~3.24", "setting": "[2]; 6 month", "value": "ND (ND = Not Detected, or <0.05%)"},
      {"measurement": "Unknown Impurities RRT~3.30", "setting": "[2]; 6 month", "value": 0.06, "unit": "%"},
      {"measurement": "Unknown Impurities RRT~3.33", "setting": "[2]; 6 month", "value": 0.05, "unit": "%"},
      {"measurement": "Unknown Impurities RRT~3.70", "setting": "[2]; 6 month", "value": "ND (ND = Not Detected, or <0.05%)"},
      {"measurement": "Unknown Impurities RRT~4.02", "setting": "[2]; 6 month", "value": 0.09, "unit": "%"},
      {"measurement": "pH", "setting": "[2]; 6 month", "value": 8.72},
      {"measurement": "Potency (Assay)", "setting": "[2]; 12 month", "value": 86.1, "unit": "%"},
      {"measurement": "Purity (% Area)", "setting": "[2]; 12 month", "value": 90.94, "unit": "%"},
      {"measurement": "Unknown Impurities RRT~0.29", "setting": "[2]; 12 month", "value": 0.13, "unit": "%"},
      {"measurement": "Unknown Impurities RRT~0.41", "setting": "[2]; 12 month", "value": 5.26, "unit": "%"},
      {"measurement": "Unknown Impurities RRT~0.44", "setting": "[2]; 12 month", "value": "ND (ND = Not Detected, or <0.05%)"},
      {"measurement": "Unknown Impurities RRT~0.49", "setting": "[2]; 12 month", "value": 1.19, "unit": "%"},
      {"measurement": "Unknown Impurities RRT~0.59", "setting": "[2]; 12 month", "value": 0.27, "unit": "%"},
      {"measurement": "Unknown Impurities RRT~0.62", "setting": "[2]; 12 month", "value": 0.43, "unit": "%"},
      {"measurement": "Unknown Impurities RRT~0.73", "setting": "[2]; 12 month", "value": 0.88, "unit": "%"},
      {"measurement": "Unknown Impurities RRT~1.69", "setting": "[2]; 12 month", "value": 0.25, "unit": "%"},
      {"measurement": "Unknown Impurities RRT~2.96", "setting": "[2]; 12 month", "value": 0.08, "unit": "%"},
      {"measurement": "Unknown Impurities RRT~3.02", "setting": "[2]; 12 month", "value": 0.09, "unit": "%"},
      {"measurement": "Unknown Impurities RRT~3.12", "setting": "[2]; 12 month", "value": 0.05, "unit": "%"},
      {"measurement": "Unknown Impurities RRT~3.24", "setting": "[2]; 12 month", "value": 0.06, "unit": "%"},
      {"measurement": "Unknown Impurities RRT~3.30", "setting": "[2]; 12 month", "value": 0.13, "unit": "%"},
      {"measurement": "Unknown Impurities RRT~3.33", "setting": "[2]; 12 month", "value": 0.06, "unit": "%"},
      {"measurement": "Unknown Impurities RRT~3.70", "setting": "[2]; 12 month", "value": 0.09, "unit": "%"},
      {"measurement": "Unknown Impurities RRT~4.02", "setting": "[2]; 12 month", "value": 0.14, "unit": "%"},
      {"measurement": "pH", "setting": "[2]; 12 month", "value": 8.83},
      {"measurement": "Potency (Assay)", "setting": "[2]; Initial", "value": 100.3, "unit": "%"},
      {"measurement": "Purity (% Area)", "setting": "[2]; Initial", "value": 98.04, "unit": "%"},
      {"measurement": "Unknown Impurities RRT~0.29", "setting": "[2]; Initial", "value": 0.11, "unit": "%"},
      {"measurement": "Unknown Impurities RRT~0.41", "setting": "[2]; Initial", "value": "ND (ND = Not Detected, or <0.05%)"},
      {"measurement": "Unknown Impurities RRT~0.44", "setting": "[2]; Initial", "value": "ND (ND = Not Detected, or <0.05%)"},
      {"measurement": "Unknown Impurities RRT~0.49", "setting": "[2]; Initial", "value": 0.62, "unit": "%"},
      {"measurement": "Unknown Impurities RRT~0.59", "setting": "[2]; Initial", "value": "ND (ND = Not Detected, or <0.05%)"},
      {"measurement": "Unknown Impurities RRT~0.62", "setting": "[2]; Initial", "value": "ND (ND = Not Detected, or <0.05%)"},
      {"measurement": "Unknown Impurities RRT~0.73", "setting": "[2]; Initial", "value": 1.05, "unit": "%"},
      {"measurement": "Unknown Impurities RRT~1.69", "setting": "[2]; Initial", "value": "ND (ND = Not Detected, or <0.05%)"},
      {"measurement": "Unknown Impurities RRT~2.96", "setting": "[2]; Initial", "value": "ND (ND = Not Detected, or <0.05%)"},
      {"measurement": "Unknown Impurities RRT~3.02", "setting": "[2]; Initial", "value": "ND (ND = Not Detected, or <0.05%)"},
      {"measurement": "Unknown Impurities RRT~3.12", "setting": "[2]; Initial", "value": "ND (ND = Not Detected, or <0.05%)"},
      {"measurement": "Unknown Impurities RRT~3.24", "setting": "[2]; Initial", "value": "ND (ND = Not Detected, or <0.05%)"},
      {"measurement": "Unknown Impurities RRT~3.30", "setting": "[2]; Initial", "value": "ND (ND = Not Detected, or <0.05%)"},
      {"measurement": "Unknown Impurities RRT~3.33", "setting": "[2]; Initial", "value": "ND (ND = Not Detected, or <0.05%)"},
      {"measurement": "Unknown Impurities RRT~3.70", "setting": "[2]; Initial", "value": "ND (ND = Not Detected, or <0.05%)"},
      {"measurement": "Unknown Impurities RRT~4.02", "setting": "[2]; Initial", "value": "ND (ND = Not Detected, or <0.05%)"},
      {"measurement": "pH", "setting": "[2]; Initial", "value": 8.60}
    ]}
  ]
}
